According to publication PMC10079573 (The journal of pain, 2022):

Experiments:
PAR2 = biological target: T1, PAR2 (Mus musculus, UniProt P55086); assay: Local intraplantar coinjection of C781 with PAR2 agonist 2AT: von Frey, Mouse Grimace Scale, hyperalgesic priming (PGE2); type: in vivo, C57BL6 mice; details: 2AT 20.9 ng intraplantar
T1 construct: from tissue; host or cells: living C57BL6 mice (hind paw / nociceptors)
T1 sequence (P55086 26-399): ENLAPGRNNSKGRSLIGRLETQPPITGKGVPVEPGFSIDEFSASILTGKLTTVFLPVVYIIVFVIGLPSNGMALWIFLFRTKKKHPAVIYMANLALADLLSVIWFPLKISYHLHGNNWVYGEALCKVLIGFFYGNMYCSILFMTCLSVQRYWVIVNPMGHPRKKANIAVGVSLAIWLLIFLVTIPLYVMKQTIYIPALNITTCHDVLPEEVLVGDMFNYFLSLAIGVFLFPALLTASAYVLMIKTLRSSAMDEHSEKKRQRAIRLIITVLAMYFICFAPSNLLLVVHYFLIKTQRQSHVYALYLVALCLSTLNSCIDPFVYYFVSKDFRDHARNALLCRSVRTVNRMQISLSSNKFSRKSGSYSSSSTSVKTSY
Protocol: Experimenters were blinded to treatment groups in all experiments. Animals were habituated to suspended acrylic chambers with each individual chamber measuring 11.4 × 7.6 × 7.6 cm and a wire mesh bottom (1 cm^2). Mechanical hypersensitivity was assessed using the manual von Frey hair test after spontaneous pain assessment using the Mouse Grimace Scale (MGS). This was done to assure that grimacing responses were not a result of mechanical stimulation.
MGS were determined using the MGS test as described by Langford and colleagues.[37] After habituation, the experimenter observed the mice and assigned intensity ratings (0 = not present, 1 = moderately present, 2 = severe) to the facial action units relative to baseline. The 5 action units identified are 1) orbital tightening, 2) nose bulge, 3) cheek bulge, 4) ear position, and 5) whisker change. The scores for all 5 action units are averaged to obtain the MGS score for each time point.
Hind paw withdrawal thresholds were calculated via the Dixon up-down method after applying calibrated von Frey filaments from Stoelting, Co. (cat# 58011) to the volar surface of the left hind paw.[12] […] The maximum filament weight used was 2 g.
Hyperalgesic priming was determined after allowing animals to return to baseline levels and injecting the previously injected paw with 100 ng of PGE2 (Cayman Chemical, Ann Arbor, MI). […]

in vitro [1] = type: in vitro ADME; details: human; for fraction unbound at 4 h, 5 µM: plasma
Protocol: (§1) The objective of this study was to evaluate protein binding test compounds in human and mice plasma. This was accomplished by spiking the test compounds at a concentration of 5 µM into human and mice plasma and dialyzing against buffer until equilibrium is achieved (4 hours). Analyte area ratios of the test compounds in plasma and buffer were determined to calculate unbound and bound percentages of compound to the plasma proteins.
(§2) Compound concentration : 5 µM
(§3) Rapid equilibrium dialysis was performed with a rapid equilibrium dialysis (RED) device containing dialysis membrane with a molecular weight cut-off of 8,000 Daltons. Each dialysis insert contains two chambers. The red chamber is for plasma while the white chamber is for buffer.
(§4) After sealing the RED device with an adhesive film, dialysis was performed in incubator at 37 °C with shaking at 100 RPM for 4 hours.
(§5) Two aliquots were frozen immediately (0 minute sample). The other two aliquots were incubated at 37 °C for 4 hours along with the RED device.
(§6) Following dialysis, an aliquot of 50 µL was removed from each well (both plasma and buffer side) and diluted with equal volume of opposite matrix (dialyzed with the other matrix) to nullify the matrix effect. Similarly, 50 µL of buffer was added to recovery and stability samples. An aliquot of 100 µL was submitted for LC-MS/MS analysis.
(§7) The peak area ratios (analyte versus internal standard) obtained was used to determine the fraction of compound bound to plasma proteins. The following equation was used to determine the extent of plasma protein binding:
(§8) Percent free drug = 100 x (peak area ratio in dialysate buffer)
(§9) Percent bound drug = 100 - % free drug
(§10) Recovery (%): 100 x (response plasma + response buffer) after dialysis / (response plasma) incubated at 37 °C in tubes along with RED device.
(§11) Stability (%):100 x (response plasma) incubated at 37 °C in tubes along with RED device / (response plasma) samples frozen at 0 min

in vitro [2] = type: in vitro ADME, mice; details: mouse; for fraction unbound at 4 h, 5 µM: plasma
Protocol: as §1, §2, §3, §4, §5, §6, §7, §8, §9, §10, §11

Molecule: 2-aminothiazo-4-yl-LIGRL-NH2 [Compound 2AT]
- Nociceptive behaviors evoked by agonist (mechanical hypersensitivity, facial grimacing) (PAR2): caused both mechanical hypersensitivity and facial grimacing
- Hyperalgesic priming by agonist (response to PGE2) (PAR2; then PGE2 100 ng intraplantar): primed and exhibited mechanical allodynia and facial grimacing in response to PGE2

Molecule: CC(=O)CC(c1ccccc1)c1c(O)c2ccccc2oc1=O (stereo not drawn) [Warfarin]
- recovery at 4 h, 5 µM (in vitro [1]; pH 7.4): 97%
- fraction unbound at 4 h, 5 µM (in vitro [1]; pH 7.4, % Bound Mean ± SD): 0.011
- fraction unbound at 4 h, 5 µM (in vitro [1]; pH 7.4, % Bound R1): 0.012
- fraction unbound at 4 h, 5 µM (in vitro [1]; pH 7.4, % Bound R2): 0.01
- fraction unbound at 4 h, 5 µM (in vitro [1]; pH 7.4, % Bound R3): 0.011
- recovery at 4 h, 5 µM (in vitro [2]; pH 7.4): 94%
- fraction unbound at 4 h, 5 µM (in vitro [2]; pH 7.4, % Bound Mean ± SD): 0.061
- fraction unbound at 4 h, 5 µM (in vitro [2]; pH 7.4, % Bound R1): 0.058
- fraction unbound at 4 h, 5 µM (in vitro [2]; pH 7.4, % Bound R2): 0.057
- fraction unbound at 4 h, 5 µM (in vitro [2]; pH 7.4, % Bound R3): 0.07
